Assay results from patent US20240424071A1, “NOVEL MUTANT OF RECOMBINANT GANODERMA LUCIDUM IMMUNOMODULATORY PROTEIN AND USE THEREOF” (CHANGCHUN INTELLICROWN PHARMACEUTICAL CO., LTD., priority 2021, published 2024).

Tests used:
[1] = test system: LI6669 human liver cancer orthotopic transplantation tumor; assay: LI6669 human liver cancer orthotopic transplantation tumor model (PDX), survival; type: in vivo, BALB/c nude mouse; details: Group 2, 50 mg/kg QD p.o. for 28 days; solvent control […] days
Excerpt: LI6669 is a HuPrime® orthotopic transplantation model originated from a patient's liver cancer.
Tumor tissue was collected from a LI6669 tumor-bearing mouse, a HuPrime® orthotopic transplantation model of liver, and cut to tumor pieces with a diameter of 2-3 mm, which were inoculated into the upper left lobe of liver of a Balb/c nude mouse.
When the average tumor volume of the tumor-bearing mice reached about 50-150 mm^3, the mice were randomly grouped by weight according to Table 3 of “3. Design of Experiment”. The grouping day was set as Day 0, and the administration began on Day 1. […].
After tumor cell inoculation, route monitoring comprises the tumor growth and the effect of treatment on normal behaviors of animals, specially including the activity, food intake and water consumption, weight gain or loss, eyes, fur of experimental animals, and other abnormal conditions. The clinical symptoms observed during the experiments were all recorded in the original data. After drug administration, the mice were measured twice a week for their weights. Observation was made to record the mouse requiring euthanasia and the corresponding survival time.

[2] = test system: human non-small cell lung cancer cell line A549; assay: Killing effect on tumor cells, CellTiter-Fluor Cell Viability Assay; type: cell-based; details: 48 h, 2% fetal bovine serum medium
Procedure: CellTiter™-Flour Cell Viability Assay Reagent kit was used to detect the killing effects of the EAEA+rLZ-8 mutant (SEQ ID NO: 14) and the […]+rLZ-8 mutant (SEQ ID NO: 15) on tumor cells (human non-small cell lung cancer cell line A549) in vitro. The recombinant protein was diluted with 2% fetal bovine serum culture medium to produce test solutions with concentrations of 100 μg/mL, 50 μg/mL, 25 μg/mL, 12.5 μg/mL, 6.25 μg/mL, 3.125 μg/mL, 1.5625 μg/mL, 0.78125 μg/mL, 0.390625 μg/mL, 0.1953125 μg/mL, and 0.09765625 μg/mL, total 11 concentrations.
The dilutions were added into a 96-well plate containing A549 cells with 100 μL/well. For each group of concentration, 3 parallel wells were set and marked. A cell control group (i.e., cells only) was set at 100 μL/well, with 6 parallel wells. The plates were cultured in a CO2 incubator at 5% CO2 and 37° C. for 48 h.
100 μL of prepared CellTiter™-Flour Cell Viability Assay Reagent (1 mLL Assay Buffer; 1 μl GF-AFC Substrate) was added into each well. The plates were shaken for mixing well, and incubated in a CO2 incubator at 5% CO2 and 37° C. for not less than 30 min. The fluorescence value was detected with a microplate reader at a wavelength of 400EX/505EM, and the IC50value was calculated.

CNC(=O)c1cc(Oc2ccc(NC(=O)Nc3ccc(Cl)c(C(F)(F)F)c3)cc2)ccn1 [Sorafenib, reference compound]
Median Survival [1]: >28 days

B1: EEAEAEAEPK+rLZ-8 mutant: recombinant protein: spacer peptide EEAEAEAEPK (SEQ ID NO: 9) linked to rLZ-8 mutant (SEQ ID NO: 13) (protein)
chain: EEAEAEAEPKMSDTALIFRLAWDVKKLSFDYTPNWGRGNPNNFIDTVTFPKVLTDKAYTYRVAVSGRNLGVKPSYAVESKGSQKVNFLEYNSGYGIADTNTIQVFVVDPDTNNDFIIAQWN
modifications: EEAEAEAEPK-rLZ-8 mutant (D70K)
IC50, killing effect on lung cancer cell line A549 [2]: 1.91 µg/mL
